“Also recorded” adds a separate entry of the source.
Tests used:
[1] = tested on: Colorectal MDR cell line CRL 2158
Experimental: (§1) Cell culture: Three cell lines derived from colon, CRL 1790, a normal cell line, HT 29, a colorectal cancer cell line and CRL 2158 a multidrug resistant colorectal cancer cell line (ATCC) were used to evaluate the cytotoxicity of nanocomplexes. Cells were cultured in media specifically recommended for each cell line. For HT 29, the medium used was DMEM (Dulbecco's modified Eagle's medium, Sigma), for CRL 2158, the medium used was RPMI, and for CRL 1790, the medium used was EMEM (Eagle's minimum essential medium; Cedarlane Labs, Burlington, ON, Canada). All the media were supplemented with FBS, Penicillin/streptomycin, and L-glutamine. At confluency (˜80%), cells were washed with 1×PBS twice. Cells were incubated with trypsin-EDTA for 5 minutes and then diluted in respective media supplemented with 10% FBS before staining with trypan blue (50 ul of cells and 450 ul of trypan blue) and counting viable cells to evaluate cytotoxicity. The cytotoxicity was determined by trypan blue exclusion by living cells and blue staining of dead cells. The number of dead cells in a unit area was counted and expressed as a percentage of total cells in the area. […]

[2] = tested on: Normal Cell Line CRL 1790
Experimental: as §1

[3] = DPPH radical scavenging capacity of food powder; format: biochemical; settings: positive control at same concentrations as polyphenols
CRL 1790 cells = assay: Calcein uptake by confocal microscopy; format: cell-based, human
Experimental: (§2) Calcein uptake into HT 29, CRL 1790 cells: Uptake of calcein-loaded nanoparticles into mammalian cells. Calcein by itself is impermeable through membrane, and may be taken up at a low level by endocytosis. Ethanol-bleached cherry was homogenized in water, also containing 1 mg/g fresh weight equivalent of calcein, and the supernatant dialyzed against water. Calcein complexed to nanofilaments is retained within the dialysis bag, and used for uptake measurements by confocal microscopy.
(§3) Studies were also performed to investigate use of nanofibres as delivery vehicles for a cargo of interest, where the cargo was non-covalently complexed with the nanofibres. In this study, nanofibres were used for cellular delivery of calcein. […]
(§4) Uptake of complexed molecules by nanofibres: Nanofibres are extremely long (micrometers in length, ˜5 nm in diameter; see FIG. 37, for example), and their ability to cross the plasma membrane was investigated. […] HT-29 and CRL-1790 cells were incubated in the presence of calcein alone, and calcein-complexed nanofibres (of equal fluorescence intensity). Uptake of calcein and calcein complexed with nanofibres were monitored by confocal microscopy. […] Similar experiments were also conducted with nanoparticles, however, because of quenching of fluorescence by polyphenols, successful acquisition of images was not achieved.

HT 29 cells = assay: Calcein uptake by confocal microscopy; format: cell-based, human
Experimental: as §2, §3, §4

CC(=O)O[C@H]1C(=O)[C@@]2(C)[C@H]([C@H](OC(=O)c3ccccc3)[C@]3(O)C[C@H](OC(=O)[C@H](O)[C@@H](NC(=O)c4ccccc4)c4ccccc4)C(C)=C1C3(C)C)[C@]1(OC(C)=O)CO[C@@H]1C[C@@H]2O [Paclitaxel, paclitaxel]
cytotoxicity (in words) [1]: low level of cytotoxicity
cytotoxicity (in words) [2]: low level of cytotoxicity

Cc1c(C)c2c(c(C)c1O)CCC(C)(C(=O)O)O2 (centres unmarked) [Trolox]
TEAC value [3]: 1

O=C(O)CN(CC(=O)O)Cc1cc2c(cc1O)Oc1cc(O)c(CN(CC(=O)O)CC(=O)O)cc1C21OC(=O)c2ccccc21 [calcein]
uptake of calcein into cells (CRL 1790 cells): comparatively very low
uptake of calcein into cells (HT 29 cells): comparatively very low; also recorded: Far reduced uptake
